Experiments:
Format in all cases: in vivo
[1] = test system: sedge, umbrella (small-flower umbrella sedge, Cyperus difformis); test: Test B flooded paddy test; conditions: Cyperus difformis, 250 g ai/ha, Flood; 0 to 100 scale where 0 is no effect and 100 is complete control; read-out: Sedge, Umbrella plant response rating
In short: (§1)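 Compound goes directly into floodwater once pots are flooded 3 cm above soil, targeting plants at two leaves; the water depth is then held for the test duration. Plants sit 13–15 d in a greenhouse and are rated visually, 100 denoting complete control.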

[2] = test system: ducksalad (Heteranthera limosa); test: Test B flooded paddy test; conditions: Heteranthera limosa, 250 g ai/ha, Flood; 0 to 100 scale where 0 is no effect and 100 is complete control; read-out: Ducksalad plant response rating
In short: as §1

[3] = test system: rice (Oryra sativa); test: Test B flooded paddy test; conditions: Oryza sativa, 250 g ai/ha, Flood; 0 to 100 scale where 0 is no effect and 100 is complete control; read-out: Rice plant response rating
In short: as §1

[4] = test system: barnyardgrass (Echinochloa crus-galli); test: Test B flooded paddy test; conditions: Echinochloa crus-galli, 250 g ai/ha, Flood; 0 to 100 scale where 0 is no effect and 100 is complete control; read-out: Barnyardgrass plant response rating
In short: as §1

[5] = test system: giant foxtail (Setaria faberii); test: Test A postemergence; conditions: Setaria faberi, post-emergence, 240 h, postemergence, read-out: Foxtail, Giant plant response rating; for pest or weed control at 125 g/ha: 125 g ai/ha, visual injury on 0 to 100 scale (0 no effect, 100 complete control), approx. 10 d; for pest or weed control at 500 g/ha: 500 g ai/ha, 0 to 100 scale, 0 is no effect, 100 is complete control
In short: (§2)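 Each rating is a visual injury score from 0 to 100 given about 10 d after treatment, judged against untreated controls kept alongside in the greenhouse. In loam soil–sand blend, seeds got a preemergence directed soil spray, while postemergence plants were 2 to 10 cm tall at spraying.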

[6] = test system: ragweed (common ragweed, Ambrosia elatior); test: Test A postemergence; conditions: Ambrosia artemisiifolia, post-emergence, 240 h, postemergence, read-out: Ragweed plant response rating; for pest or weed control at 125 g/ha: 125 g ai/ha, visual injury on 0 to 100 scale (0 no effect, 100 complete control), approx. 10 d; for pest or weed control at 500 g/ha: 500 g ai/ha, 0 to 100 scale, 0 is no effect, 100 is complete control
In short: as §2

[7] = test system: blackgrass (Alopecurus myosuroides); test: Test A postemergence; conditions: Alopecurus myosuroides, post-emergence, 240 h, postemergence, read-out: Blackgrass plant response rating; for pest or weed control at 125 g/ha: 125 g ai/ha, visual injury on 0 to 100 scale (0 no effect, 100 complete control), approx. 10 d; for pest or weed control at 500 g/ha: 500 g ai/ha, 0 to 100 scale, 0 is no effect, 100 is complete control
In short: as §2

[8] = test system: barnyardgrass (Echinochloa crus-galli); test: Test A postemergence; conditions: Echinochloa crus-galli, post-emergence, 240 h, postemergence, read-out: Barnyardgrass plant response rating; for pest or weed control at 125 g/ha: 125 g ai/ha, visual injury on 0 to 100 scale (0 no effect, 100 complete control), approx. 10 d; for pest or weed control at 500 g/ha: 500 g ai/ha, 0 to 100 scale, 0 is no effect, 100 is complete control
In short: as §2

[9] = test system: Kochia (Kochia scoparia); test: Test A postemergence; conditions: Bassia scoparia, post-emergence, 240 h, postemergence, read-out: Kochia plant response rating; for pest or weed control at 125 g/ha: 125 g ai/ha, visual injury on 0 to 100 scale (0 no effect, 100 complete control), approx. 10 d; for pest or weed control at 500 g/ha: 500 g ai/ha, 0 to 100 scale, 0 is no effect, 100 is complete control
In short: as §2

[10] = test system: ryegrass, Italian (Italian ryegrass, Lolium multiflorum); test: Test A postemergence; conditions: Lolium multiflorum, post-emergence, 240 h, postemergence, read-out: Ryegrass, Italian plant response rating; for pest or weed control at 125 g/ha: 125 g ai/ha, visual injury on 0 to 100 scale (0 no effect, 100 complete control), approx. 10 d; for pest or weed control at 500 g/ha: 500 g ai/ha, 0 to 100 scale, 0 is no effect, 100 is complete control
In short: as §2

[11] = test system: wheat (Triticum aestivum); test: Test A postemergence; conditions: Triticum aestivum, post-emergence, 240 h, postemergence, read-out: Wheat plant response rating; for plant injury at 125 g/ha: 125 g ai/ha, visual injury on 0 to 100 scale (0 no effect, 100 complete control), approx. 10 d; for plant injury at 500 g/ha: 500 g ai/ha, 0 to 100 scale, 0 is no effect, 100 is complete control
In short: as §2

[12] = test system: pigweed (Amaranthus retroflexus); test: Test A postemergence; conditions: Amaranthus retroflexus, post-emergence, 240 h, postemergence, read-out: Pigweed plant response rating; for pest or weed control at 125 g/ha: 125 g ai/ha, visual injury on 0 to 100 scale (0 no effect, 100 complete control), approx. 10 d; for pest or weed control at 500 g/ha: 500 g ai/ha, 0 to 100 scale, 0 is no effect, 100 is complete control
In short: as §2

[13] = test system: corn (Zea mays); test: Test A postemergence; conditions: Zea mays, post-emergence, 240 h, postemergence, read-out: Corn plant response rating; for plant injury at 125 g/ha: 125 g ai/ha, visual injury on 0 to 100 scale (0 no effect, 100 complete control), approx. 10 d; for plant injury at 500 g/ha: 500 g ai/ha, 0 to 100 scale, 0 is no effect, 100 is complete control
In short: as §2

[14] = test system: Galium (catchweed bedstraw, Galium aparine); test: Test A postemergence; conditions: Galium, post-emergence, 240 h, postemergence, read-out: Galium plant response rating; for pest or weed control at 125 g/ha: 125 g ai/ha, visual injury on 0 to 100 scale (0 no effect, 100 complete control), approx. 10 d; for pest or weed control at 500 g/ha: 500 g ai/ha, 0 to 100 scale, 0 is no effect, 100 is complete control
In short: as §2

[15] = test system: ragweed (common ragweed, Ambrosia elatior); test: Test A preemergence; conditions: Ambrosia artemisiifolia, pre-emergence, 240 h, preemergence, 0 to 100 scale where 0 is no effect and 100 is complete control, read-out: Ragweed plant response rating; for pest or weed control at 125 g/ha: 125 g ai/ha, approx. 10 d; for pest or weed control at 500 g/ha: 500 g ai/ha
In short: as §2

| Structure (SMILES) | pest or weed control at 250 g/ha [1] | pest or weed control at 250 g/ha [2] | pest or weed control at 250 g/ha [3] | pest or weed control at 250 g/ha [4] | pest or weed control at 125 g/ha [5] | pest or weed control at 500 g/ha [5] | pest or weed control at 125 g/ha [6] | pest or weed control at 500 g/ha [6] | pest or weed control at 125 g/ha [7] | pest or weed control at 500 g/ha [7] | pest or weed control at 125 g/ha [8] | pest or weed control at 500 g/ha [8] | pest or weed control at 125 g/ha [9] | pest or weed control at 500 g/ha [9] | pest or weed control at 125 g/ha [10] | pest or weed control at 500 g/ha [10] | plant injury at 125 g/ha [11] | plant injury at 500 g/ha [11] | pest or weed control at 125 g/ha [12] | pest or weed control at 500 g/ha [12] | further results |
| --- | --- | --- | --- | --- | --- | --- | --- | --- | --- | --- | --- | --- | --- | --- | --- | --- | --- | --- | --- | --- | --- |
| CC(C)Oc1ccc([C@H]2CNC(=O)[C@@H]2C(=O)Nc2ccccc2F)cc1 [Compound 1135] | 0% | 40% | 0% | 0% | 0% | 0% | 0% | 0% | 0% | 0% | 0% | 0% | 0% | 0% | 0% | 0% | 0% | 0% | 0% | 0% | plant injury at 125 g/ha [13]: 0%; plant injury at 500 g/ha [13]: 0%; pest or weed control at 125 g/ha [14]: 0%; pest or weed control at 500 g/ha [14]: 0%; pest or weed control at 125 g/ha [15]: 0%; pest or weed control at 500 g/ha [15]: 0% |
| CC(C)Oc1ccc([C@H]2CNC(=O)[C@@H]2C(=O)Nc2cccc(F)c2F)cc1 [Compound 1136] | 0% | 85% | 0% | 0% | 20% | 90% | 0% | 0% | 0% | 30% | 30% | 90% | 0% | 0% | 0% | 0% | 0% | 0% | 0% | 0% | plant injury at 125 g/ha [13]: 0%; plant injury at 500 g/ha [13]: 0%; pest or weed control at 125 g/ha [14]: 0%; pest or weed control at 500 g/ha [14]: 20%; pest or weed control at 125 g/ha [15]: 0%; pest or weed control at 500 g/ha [15]: 0% |
| CC(C)Oc1ccc([C@H]2CNC(=O)[C@@H]2C(=O)Nc2ccc(F)cc2F)cc1 [Compound 1137] | 0% | 0% | 0% | 0% | 0% | 0% | 0% | 0% | 0% | 0% | 0% | 0% | 0% | 0% | 0% | 0% | 0% | 0% | 0% | 0% | plant injury at 125 g/ha [13]: 0%; plant injury at 500 g/ha [13]: 0%; pest or weed control at 125 g/ha [14]: 0%; pest or weed control at 500 g/ha [14]: 0%; pest or weed control at 125 g/ha [15]: 0%; pest or weed control at 500 g/ha [15]: 0% |
| CCc1cc(CC)cc([C@H]2CNC(=O)[C@@H]2C(=O)Nc2ccccc2F)c1 [Compound 1138] | 0% | 75% | 0% | 60% | 50% | 90% | 0% | 0% | 30% | 60% | 90% | 90% | 0% | 0% | 0% | 50% | 30% | 70% | 0% | 0% | plant injury at 125 g/ha [13]: 50%; plant injury at 500 g/ha [13]: 80%; pest or weed control at 125 g/ha [14]: 20%; pest or weed control at 500 g/ha [14]: 50%; pest or weed control at 125 g/ha [15]: 0%; pest or weed control at 500 g/ha [15]: 0% |

Source: patent US12077503B2, “Substituted cyclic amides and their use as herbicides” (FMC CORPORATION, priority 2015, dated 2024)
